Experimental data reported in patent US20240327456A1, “CANCER THERAPEUTICS” (UNIVERSITAT DE BARCELONA, priority 2021, published 2024).
Values after ≈ are worked out from the molar mass of the structure shown. “Also recorded” adds a separate entry of the source. Like-named read-outs stand apart in the source and are kept apart here. Numbered stars: 1 amine (or outer) side, 2 acyl side, 3 side chain; on linkers, the order of the positions; unused ones are H or OH. Square brackets hold non-standard residues; d marks the D form. Peptide text beside a SMILES is read from it. * marks the point of attachment. Diphenylacetyl = O=C(C(c1ccccc1)c1ccccc1)*; Phe(4-Me) = Cc1ccc(C[CH](N)C(=O)O)cc1; NMeβAla = CN(CCC(=O)[*:2])[*:1]; Cha = N[CH](CC1CCCCC1)C(=O)O; Chg = N[CH](C(=O)O)C1CCCCC1; X1 = C1CCC2(CC1)CCN(*)CC2; Dab = NCC[CH](N)C(=O)O; Bz = O=C(c1ccccc1)*

How the values were obtained:
[1] = system: hTERT-RPE cells; assay type: cell-based, human; conditions: at the concentrations of the tumor cell IC50 (approximately 20 μM), 24 h, MTS
Description: (§1) Cells cultured in 10% FCS were treated with compound (I) in a dose range from 0 to 25 µM and incubated for 24 h, when cell viability was determined by MTS assay. Experiment was repeated 3 times. Differences were assessed using one-way ANOVA and Tukey Multiple Comparisons Test and considered significant when p≤0.05.
(§2) 10,000 cells in 50 μL of 10% FBS-containing medium, were cultured for 24 h and then treated with the drugs (50 μL final volume) for a further 24 h in each well of a 96-well plate (100 μL final volume). MTS viability assay (CellTiter 96® Aqueous One Solution Cell Proliferation Assay, Promega G3580) was performed following the manufacturer's specifications. The absorbance of each well was measured with a multimode plate reader (Spark, Tecan) at 490 nm. The percentage of cell viability was calculated by dividing the absorbance of each well by the average absorbance of the control wells (which had no significant deviation when Student's t-test was applied).
We next incubated IPR-473 at several concentrations with different cancer cell lines and a normal cell line (-hTERT-RPE cells). Cell viability was measured by a MTS cell proliferation assay. […] Cells were placed in a 96-well plate culture containing 10% FBS (Bilogical Industries)-containing medium. (10000 cell per well). […]

[2] = system: pancreatic adenocarcinoma human cell lines (MPanc-96, HPAF-II, PA-TU-8902, SW1990, PA-TU 8988T, PANC-1); assay type: cell-based; conditions: for specificity cancer cells versus normal cells (cell viability): cancer cell lines versus hTERT-RPE, MTS
Description: as §1, §2
We next incubated IPR-473 at several concentrations with different cancer cell lines and a normal cell line (-hTERT-RPE cells). Cell viability was measured by a MTS cell proliferation assay. […] Cells were placed in a 96-well plate culture containing 10% FBS (Bilogical Industries)-containing medium. (10000 cell per well). These cells were then cultured for 24 hours and then treated with IPR-473 at concentrations of 10 μM, 15 μM, 20 μM and 25 μM for a further 24 hours incubation.
The different cell lines used included human pancreatic cancer cells MPANC-96, human pancreatic adenocarcinoma cells HPAF-II, human pancreatic grade II adenocarcinoma PA-TU, human pancreatic ductaladenocarcinoma SW1990, human pancreas adenocarcinoma 8988-T and human pancreatic ductal carcinoma PANC-1. Each of these comprises a pancreatic tumor cell line. The control as stated was hTERT-RPE cells and that are not cancerigenous.

[3] = molecular target: T1, HA-KRASG12V with C-RAF or with PI3K (Homo sapiens, UniProt P01116, G12V); assay: Co-immunoprecipitation of HA-KRASG12V with C-RAF or PI3K in Hela cells; assay type: cell-based; conditions: 100 µM for 2 h, EGF 10 min, starved Hela cells expressing HA-KRASG12V
T1 construct: expressed in transfected cells; host or cells: HeLa cells, Lipofectamine 2000, plasmid pEF-HA-KRASG12V
Description: Immunoprecipitation was performed with anti-HA antibodies and Western blot of the bound (BO) and input (IN) fractions with anti-p110αPI3K and anti-C-RAF. Experiments were repeated at least three times.
Cells were seeded in a media containing 10% FBS for 24 h and were serum starved for the next 24 h. Afterwards, they were incubated with different concentrations of the compounds for 2 h. A successive treatment for 10 min with EGF (50 ng/mL; Sigma-Aldrich) was performed in order to activate cell signaling.
HeLa cells were transfected with pEF-HA-KRASG12V plasmid, obtained as described in C. Lopez-Alcala et al. (“Identification of essential interacting elements in K-Ras/calmodulin binding and its role in K-Ras localization.”; J. Biol. Chem. 2008; April 18; 283(16):10621-31. doi: 10.1074/jbc.M706238200. Epub 2008 Jan. 8. PMID: 18182391). Lipofectamine®2000 Transfection Reagent (Invitrogen) was used as a transfection method following the manufacturer's instructions.
Cells were transfected with pEF-HA-KRASG12V plasmid for 24 h and starved for the next 24 h before treatment with the peptides and EGF. Next, an IP with anti-HA antibody crosslinked to agarose beads was performed. […]

[4] = Solubility in PBS with 15% β-cyclodextrin; assay type: physicochemical; conditions: 1 mM, 24 hours agitation, supernatant by HPLC; mean±SD
Description: xxxxx Furthermore, an additional effort was done to reevaluate those peptidomimetics from the first generation that were not soluble in the in vitro assay conditions or formed aggregates as described above when incubated with the RPE cells.
We then put these peptidomimetics under constant agitation for 24 hours. […] Data are expressed as the mean±SD.

[5] = PAMPA assay; assay type: in vitro ADME; conditions: for Pe / Retention %: mean±SD
Source text: As part of our analysis, we evaluated IP-14-01, IP-14-03 and IP-14-08 and their biophysical properties by studying them using a solution of 5% DMSO in water. We conducted a permeability through biological barriers (PAMPA assay) and their internalization in SH-SY5Y cells.
(§3) The methods used are well known and would be known to one of skill in the art. As a control, we evaluated the solubility in water which contained 5% DMSO to identify any possible issue related with a low solubility. Data are expressed as the mean±SD.

[6] = system: Ras signaling pathway (Raf/ERK and PI3K/AKT); assay: Western blot of RAS signaling pathways in EGF-stimulated serum starved hTERT-RPE cells; assay type: cell-based, human; conditions: 50 μM, 0.5% DMSO, 2 h before EGF 50 ng/mL 10 min
Description: Cells were seeded in a media containing 10% FBS for 24 hours and were serum starved (0.5%) for the next 24 hours. Afterwards, they were incubated with different concentrations of the compounds for 2 hours. A successive treatment for 10 minutes with EGF (50 ng/mL) (Sigma-Aldrich) was performed in order to activate cell signaling.
Proteins were resolved by SDS-PAGE and transferred onto PVDF membranes (Immobilon-P, Millipore). Non-specific binding of the antibodies was assessed by incubating the membranes for 1 hour at room temperature with a buffer composed of 20 mM Tris-HCl pH 7.5, 150 mM NaCl, 0.05% Tween 20 and 5% bovine serum albumin. Protein expression was determined by probing the blots overnight at 4° C. with the specified antibodies:anti-c-RAF (BD Transduction 610151, 1:500); anti-phospho-c-RAF S338 (Cell Signaling 9427, 1:500); anti-PI3Kp110a (Cell Signaling 4249, 1:1000); anti-AKT (Cell Signaling 9272, 1:1000); anti-phospho-AKT S473 (Cell Signaling 4060, 1:1000); anti-phospho-AKT Thr308 (Cell Signaling 4056, 1:1000); anti-p44/42 MAPK (ERK1/2) (Cell Signaling 9102, 1:2000); anti-phospho-p44/42 MAPK(ERK1/2) T202/Y204 (Cell Signaling 4370, 1:2000); anti-GAP120 (Santa Cruz SC-63, 1:200); anti-HA (Sigma-Aldrich H6908, 1:1000); or anti-α-tubulin (Sigma-Aldrich T9026, 1:2000). Next, after washing the membranes they were incubated with the corresponding HRP-coupled secondary antibodies (goat anti-rabbit BioRad 170-6515 or goat anti-mouse BioRad 170-6516, 1:3000) for 60 minutes at room temperature and washed again. Protein detection was performed by enhanced chemiluminescence (EZ-ECL, Biological Industries). Emitted light was captioned and quantified (ChemiDoc, BioRad).
For analysis of RAS signalling, cells were lysed in a buffer containing 67 mM Tris-HCl pH 6.8 and 2% SDS and then the samples were heated at 97° C. for 15 minutes. After this, the protein concentration of the lysates was assayed using the Lowry method. An aliquot of 15 μg of protein per sample was loaded onto the gels.
GAP120 detection was used as control.
To consider a peptidomimetic as a positive hit, it should inhibit the activity of the two protein cascades, and as a consequence the phosphorylation of the RAF (P-RAF), AKT (P-AKT) and ERK (P-ERK) should not be observed.

[7] = Solubility in water at 5% DMSO; assay type: physicochemical
Source text: as §3

CC(C)C[C@H](NC(=O)[C@H](CN)N(C)C(=O)CCN(C)C(=O)[C@H](Cc1ccc(-c2ccccc2)cc1)NC(=O)C(c1ccccc1)c1ccccc1)C(=O)N1CCCC1 [compound of formula (I), (S)-N-(3-(((S)-3-amino-1-((S)-4-methyl-1-oxo-1-(pyrrolidin-1-yl)pentan-2-ylamino)-1-oxopropan-2-yl)(methyl)amino)-3-oxopropyl)-3-(biphenyl-4-yl)-2-(2,2-diphenylacetamido)-N-methylpropanamide]
normal cells affected [1]: less than 5% | IC50 ([2]; 24 h): ~20 µM | PI3K and c-RAF1 interaction with KRAS (co-immunoprecipitation) [3]: reduced PI3K and c-RAF1 interaction with KRAS

CC(C)CC(NC(=O)COc1ccc(C(C)(C)C)cc1)C(=O)NC(Cc1cccc2ccccc12)C(=O)NC(CN)C(=O)N1CCC2(CCCCC2)CC1 (stereo not shown) [IP-14-09]
Conc. in PBS β-cyclodextrin 15% [4]: 949 ± 8 µM

CC(C)CC(NC(=O)CCCN(C)C(=O)C(CCCN)NC(=O)C(Cc1cccc2ccccc12)NC(=O)c1c2ccccc2cc2ccccc12)C(=O)N1CCC2(CCCCC2)CC1 (stereo not shown) [IP-14-04]
Conc. in PBS β-cyclodextrin 15% [4]: 780 ± 30 µM

CC(NC(=O)C(CN)NC(=O)CCN(C)C(=O)C(Cc1ccc(-c2ccccc2)cc1)NC(=O)C(c1ccccc1)c1ccccc1)C(=O)N1CCCC1 (stereo not shown) [IP-14-01]
specificity cancer cells versus normal cells (cell viability) [2]: did not show cell-line specificity | Transport % [5]: 0% | Pe [5]: 5.6e-10 ± 3.1e-10 cm/s | Retention % [5]: 55.7 ± 7.1% | Inhibition of RAS-effectors protein cascades (P-RAF, P-AKT, P-ERK) by Western blot [6]: able to inhibit the two RAS-effectors protein cascades; also recorded: most potent inhibitor | Solubility (in words) [7]: good solubility | solubility [7]: 1333 ± 13 µM (≈ 974 µg/mL)

Cc1ccc(CC(NC(=O)C(c2ccccc2)c2ccccc2)C(=O)N(C)CCC(=O)NC(CC2CCCCC2)C(=O)NC(C(=O)N2CCCC2C(N)=O)C2CCCCC2)cc1 (stereo not shown) [IPR-471] (Diphenylacetyl-[Phe(4-Me)][NMeβAla][Cha][Chg]P-NH2; configuration not given here)
Inhibition of RAS-effectors protein cascades (P-RAF, P-AKT, P-ERK) by Western blot [6]: not better than IP-14-01

CCC(C)C(NC(=O)C(c1ccccc1)c1ccccc1)C(=O)NC(CCc1ccccc1)C(=O)NC(CCCCN)C(=O)N1CCC2(CCCCC2)CC1 (stereo not shown) [IP-14-07]
Conc. in PBS β-cyclodextrin 15% [4]: 766 ± 19 µM

CC(NC(=O)C(NC(=O)CCN(C)C(=O)C(CN)NC(=O)C(c1ccccc1)c1ccccc1)C1CCCCC1)C(=O)N1CCC2(CCCCC2)CC1 (stereo not shown) [IP-14-03]
Transport % [5]: 0% | Pe [5]: 1.6e-09 ± 3.6e-10 cm/s | Retention % [5]: 77.9 ± 2.4% | Inhibition of RAS-effectors protein cascades (P-RAF, P-AKT, P-ERK) by Western blot [6]: able to inhibit the two RAS-effectors protein cascades | Solubility (in words) [7]: good solubility | solubility [7]: 549 ± 90 µM (≈ 400 µg/mL)

CC(C)CC(NC(=O)COc1ccc(C(C)(C)C)cc1)C(=O)NC(Cc1cccc2ccccc12)C(=O)NC(CCCCN)C(=O)N1CCCCC1 (stereo not shown) [IP-14-05]
Conc. in PBS β-cyclodextrin 15% [4]: 849 ± 43 µM

NCCCCC(NC(=O)C(Cc1ccccc1)NC(=O)C(CC1CCCC1)NC(=O)c1c2ccccc2cc2ccccc12)C(=O)N1CCCC1 (stereo not shown) [IP-14-02]
Inhibition of RAS-effectors protein cascades (P-RAF, P-AKT, P-ERK) by Western blot [6]: able to inhibit the RAF and AKT but not ERK

CC(O)C(NC(=O)CCN(C)C(=O)C(Cc1ccc(-c2ccccc2)cc1)NC(=O)C(c1ccccc1)c1ccccc1)C(=O)NC(C(=O)N1CCCC1)C1CCCCC1 (stereo not shown) [IPR-474]
Inhibition of RAS-effectors protein cascades (P-RAF, P-AKT, P-ERK) by Western blot [6]: not better than IP-14-01

CC(C)CC(NC(=O)C(CN)N(C)C(=O)CCN(C)C(=O)C(Cc1ccc(-c2ccccc2)cc1)NC(=O)C(c1ccccc1)c1ccccc1)C(=O)N1CCCC1 (stereo not shown) [IPR-473]
specificity cancer cells versus normal cells (cell viability) [2]: high specificity for pancreatic cancer cell lines | Inhibition of RAS-effectors protein cascades (P-RAF, P-AKT, P-ERK) by Western blot [6]: able to inhibit all the two different protein cascades (RAF/ERK and PI3K/AKT) more effectively than even IP-14-01; also recorded: highest degree of inhibition of the RAS effectors

CC(C)CC(NC(=O)C(Cc1ccccc1)NC(=O)C1CCCN1C(=O)C(CCN)NC(=O)c1ccccc1)C(=O)N1CCC2(CCCCC2)CC1 (stereo not shown) [IP-14-08] (Bz-[Dab]PFL-X1; configuration not given here)
Transport % [5]: 0% | Pe [5]: 0 cm/s | Retention % [5]: 97.6 ± 5.0% | Inhibition of RAS-effectors protein cascades (P-RAF, P-AKT, P-ERK) by Western blot [6]: able to inhibit the two RAS-effectors protein cascades | Solubility (in words) ([7]; water at 5% DMSO): good solubility | solubility ([7]; water at 5% DMSO, mean±SD, read-out: Solubility): 1320 ± 22 µM (≈ 942 µg/mL)
